The structures appear in SMILES notation. Calls of active or inactive are those of the source. The calls are words filed in the database; no cut-off is given here. Some results are limits rather than exact numbers.

The subject of series [1] is 3T3-L1. As to the kind of experiment: Inhibition of lipid accumulation in mouse 3T3-L1 cells at 5 to 20 uM incubated for 6 days by Oil Red O staining based spectrometric assay. It is filed as functional, cell-based. Particulars: dose 5-20 µM, time 6.0 day.
For series [2], the system named is Mus musculus. As to the kind of experiment: Effect on fecal energy content in high fat diet-fed C57BL/6J mouse model of obesity and diabetes at 20 mg/kg, ip dosed daily for 8 days. In kind it is functional, organism-based. The following applies: time 8.0 day.
The subject of series [3] is 3T3-L1. As to the kind of experiment: Inhibition of cholesterol uptake related gene expression in mouse 3T3-L1 cells assessed as reduction in CD36 expression at 20 uM incubated for 6 days by real-time PCR analysis. In kind it is functional, cell-based. The following applies: time 6.0 day. A general note: In qPCR the cycle at which signal appears reflects the starting amount.

Series [4] concerns 3T3-L1. As to the kind of experiment: Suppression of cholesterol levels in mouse 3T3-L1 cells. In kind it is functional, cell-based.
Series [5] relates to 3T3-L1. As to the kind of experiment: Inhibition of lipid synthesis related gene expression in mouse 3T3-L1 cells assessed as reduction in PPARgamma expression at 20 uM incubated for 6 days by real-time PCR analysis. In kind it is functional, cell-based. Particulars: time 6.0 day.
Series [6] concerns Mus musculus. As to the kind of experiment: Anti-diabetic activity in high fat diet-fed C57BL/6J mouse model of obesity and diabetes assessed as reduction in insulin levels at 20 mg/kg, ip dosed daily for 2 weeks. In kind it is functional, organism-based.
Series [7] concerns 3T3-L1. Briefly: Inhibition of lipid synthesis related gene expression in mouse 3T3-L1 cells assessed as reduction in FAS expression at 20 uM incubated for 6 days by real-time PCR analysis. The following applies: time 6.0 day. It is filed as functional, cell-based.
The subject of series [8] is Mus musculus. Briefly: Anti-diabetic activity in high fat diet-fed C57BL/6J mouse model of obesity and diabetes assessed as reduction in food intake at 20 mg/kg, ip dosed daily for 8 days. The following applies: time 8.0 day. In kind it is functional, organism-based.
Series [9] deals with 3T3-L1. As to the kind of experiment: Increase in 125 kDa inactive precursor form of SREBPl protein in mouse 3T3-L1 cells at 20 uM incubated for 6 days by Western blot analysis. It is filed as functional, cell-based. The following applies: time 6.0 day. Background: In western blotting, separated proteins are transferred to a membrane and probed.
In series [10] the test system is 3T3-L1. Briefly: Effect on superoxide dismutase 1 in mouse 3T3-L1 cells at 10 uM dosed during day 2 to 6 and followed by drug replacement every 48 hrs by LC-MS/MS analysis based proteomic analysis. The following applies: time 4.0 day. It is filed as functional.
In series [11] the test system is Mus musculus. As to the kind of experiment: Anti-diabetic activity in high fat diet-fed C57BL/6J mouse model of obesity and diabetes assessed as reduction of white adipose tissue at 20 mg/kg, ip dosed daily for 2 weeks. It is filed as functional, organism-based.
Series [12] deals with 3T3-L1. Briefly: Inhibition of lipid accumulation in mouse 3T3-L1 cells at 1 to 20 uM incubated for 6 days by Oil Red O staining based spectrometric assay. It is filed as functional, cell-based. The following applies: dose 1-20 µM, time 6.0 day.
The subject of series [13] is Mus musculus. As to the kind of experiment: Anti-diabetic activity in high fat diet-fed C57BL/6J mouse model of obesity and diabetes assessed as improvement in glucose tolerance at 20 mg/kg, ip dosed daily for 2 weeks. It is filed as functional, organism-based.
Series [14] concerns 3T3-L1. Briefly: Inhibition of lipid accumulation in mouse 3T3-L1 cells at 10 to 20 uM incubated for 6 days by CARS microscopy. It is filed as functional, cell-based. Particulars: dose 10-20 µM, time 6.0 day.
Series [15] concerns Mus musculus. As to the kind of experiment: Anti-diabetic activity in high fat diet-fed C57BL/6J mouse model of obesity and diabetes assessed as reduction in respiratory exchange ratio at 20 mg/kg, ip dosed daily for 2 weeks. It is filed as functional, organism-based.
Series [16] has as its system 3T3-L1. Briefly: Inhibition of lipid synthesis related gene expression in mouse 3T3-L1 cells assessed as reduction in SCD1 expression at 20 uM incubated for 6 days by real-time PCR analysis. In kind it is functional, cell-based. The following applies: time 6.0 day.
For series [17], the system named is 3T3-L1. As to the kind of experiment: Inhibition of CE accumulation in mouse 3T3-L1 cells. In kind it is functional, cell-based.
The test system of series [18] is 3T3-L1. As to the kind of experiment: Inhibition of lipid synthesis related gene expression in mouse 3T3-L1 cells assessed as reduction in SREBPlc expression at 20 uM incubated for 6 days by real-time PCR analysis. In kind it is functional, cell-based. Particulars: time 6.0 day.
The test system of series [19] is 3T3-L1. As to the kind of experiment: Inhibition of lipid synthesis related gene expression in mouse 3T3-L1 cells assessed as reduction in MGAT1 expression at 20 uM incubated for 6 days by real-time PCR analysis. In kind it is functional, cell-based. Particulars: time 6.0 day.
Series [20] relates to 3T3-L1. Briefly: Inhibition of lipid accumulation in mouse 3T3-L1 cells at 1 to 20 uM incubated for 6 days by Oil Red O staining based spectrometric assay relative to control. It is filed as functional. Particulars: dose 1-20 µM, time 6 day.
The subject of series [21] is Mus musculus. Briefly: Anti-diabetic activity in high fat diet-fed C57BL/6J mouse model of obesity and diabetes assessed as reduction in serum leptin level at 20 mg/kg, ip dosed daily for 2 weeks. It is filed as functional, organism-based.
Series [22] can be described thus: Hepato-toxicity in high fat diet-fed C57BL/6J mouse model of obesity and diabetes assessed as effect on ALT activity at 20 mg/kg, ip dosed daily for 2 weeks. The following applies: in vivo, 336 h. It is filed as organism-based.
Series [23] has as its system 3T3-L1. As to the kind of experiment: Inhibition of LD accumulation mouse 3T3-L1 cells using deuterium labeled glucose-d7 by SRS microscopy. In kind it is functional, cell-based.
For series [24], the system named is Mus musculus. As to the kind of experiment: Anti-diabetic activity in high fat diet-fed C57BL/6J mouse model of obesity and diabetes assessed as reduction in blood glucose at 20 mg/kg, ip dosed daily for 2 weeks. It is filed as functional, organism-based.
Series [25] deals with Mus musculus. Briefly: Anti-diabetic activity in high fat diet-fed C57BL/6J mouse model of obesity and diabetes assessed as improvement in blood lipid profile by measuring decrease in TG level at 20 mg/kg, ip dosed daily for 2 weeks. In kind it is functional, organism-based.
Series [26] has as its system Mus musculus. Briefly: Anti-diabetic activity in high fat diet-fed C57BL/6J mouse model of obesity and diabetes assessed as reduction of white adipose tissue weight (retroperitoneal adipose tissue ) at 20 mg/kg, ip dosed daily for 2 weeks. It is filed as functional, organism-based.
In series [27] the test system is 3T3-L1. As to the kind of experiment: Inhibition of cholesterol uptake related gene expression in mouse 3T3-L1 cells assessed as reduction in SR-B1 expression at 20 uM incubated for 6 days by real-time PCR analysis. In kind it is functional, cell-based. Particulars: time 6.0 day.
For series [28], the system named is Mus musculus. Briefly: Anti-diabetic activity in high fat diet-fed C57BL/6J mouse model of obesity and diabetes assessed as reduction of white adipose tissue weight (epididymal adipose tissue ) at 20 mg/kg, ip dosed daily for 2 weeks. It is filed as functional, organism-based.
Series [29] deals with 3T3-L1. As to the kind of experiment: Inhibition of lipid synthesis related gene expression in mouse 3T3-L1 cells assessed as reduction in DGAT2 expression at 20 uM incubated for 6 days by real-time PCR analysis. In kind it is functional, cell-based. Particulars: time 6.0 day.
Series [30] addresses T1, Sterol O-acyltransferase 1 (Mus musculus) (UniProt Q61263).
T1 sequence (whole entry): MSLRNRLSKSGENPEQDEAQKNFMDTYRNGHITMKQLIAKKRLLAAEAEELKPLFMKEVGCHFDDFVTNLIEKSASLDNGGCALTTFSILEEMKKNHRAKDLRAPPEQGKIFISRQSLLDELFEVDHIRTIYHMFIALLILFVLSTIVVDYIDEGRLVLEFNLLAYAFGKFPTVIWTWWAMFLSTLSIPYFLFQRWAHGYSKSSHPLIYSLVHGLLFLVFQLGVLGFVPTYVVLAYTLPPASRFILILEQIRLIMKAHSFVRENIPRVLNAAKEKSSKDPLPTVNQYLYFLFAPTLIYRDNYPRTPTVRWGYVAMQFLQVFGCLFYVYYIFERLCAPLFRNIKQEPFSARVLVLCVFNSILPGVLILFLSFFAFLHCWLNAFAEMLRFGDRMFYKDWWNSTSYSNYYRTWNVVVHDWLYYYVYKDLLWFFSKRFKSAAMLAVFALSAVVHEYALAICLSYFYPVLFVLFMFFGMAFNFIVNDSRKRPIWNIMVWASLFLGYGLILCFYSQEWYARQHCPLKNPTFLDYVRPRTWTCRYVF
Briefly: Inhibition of ACAT in mouse 3T3-L1 cells assessed as reduction in accumulation of fluorescence-labeled CE by 25-NBD cholesterol based assay. In kind it is cell-based.

For series [31], the system named is Mus musculus. Briefly: Anti-diabetic activity in high fat diet-fed C57BL/6J mouse model of obesity and diabetes assessed as reduction in food intake at 20 mg/kg, ip dosed daily for 2 weeks. It is filed as functional. Further details: scale not given: the % may be the effect or the level left.
In series [32] the test system is Mus musculus. As to the kind of experiment: Anti-diabetic activity in high fat diet-fed C57BL/6J mouse model of obesity and diabetes assessed as reduction in energy expenditure at 20 mg/kg, ip dosed daily for 2 weeks. It is filed as functional, organism-based.
For series [33], the system named is 3T3-L1. Briefly: Effect on cytochrome B5 reductase 3 in mouse 3T3-L1 cells at 10 uM dosed during day 2 to 6 and followed by drug replacement every 48 hrs by LC-MS/MS analysis based proteomic analysis. It is filed as functional. The following applies: time 4.0 day.
The subject of series [34] is Mus musculus. As to the kind of experiment: Anti-diabetic activity in high fat diet-fed C57BL/6J mouse model of obesity and diabetes assessed as reduction in total body weight gain at 20 mg/kg, ip dosed daily for 2 weeks. It is filed as functional. Further details: scale not given: the % may be the effect or the level left.
Series [35] concerns Mus musculus. As to the kind of experiment: Anti-diabetic activity in high fat diet-fed C57BL/6J mouse model of obesity and diabetes assessed as improvement in blood lipid profile by measuring decrease in free cholesterol at 20 mg/kg, ip dosed daily for 2 weeks. It is filed as functional, organism-based.
The test system of series [36] is Mus musculus. Briefly: Anti-diabetic activity in high fat diet-fed C57BL/6J mouse model of obesity and diabetes assessed as reduction of whole body fat mass at 20 mg/kg, ip dosed daily for 2 weeks. It is filed as functional, organism-based.
Series [37] has as its system Mus musculus. As to the kind of experiment: Anti-diabetic activity in high fat diet-fed C57BL/6J mouse model of obesity and diabetes assessed as reduction in body weight at 20 mg/kg, ip dosed daily for 8 days. Particulars: time 8.0 day. In kind it is functional, organism-based.
For series [38], the system named is Mus musculus. As to the kind of experiment: Anti-diabetic activity in high fat diet-fed C57BL/6J mouse model of obesity and diabetes assessed as improvement in HOMA-IR levels at 20 mg/kg, ip dosed daily for 2 weeks. It is filed as functional, organism-based.
The subject of series [39] is Mus musculus. As to the kind of experiment: Anti-diabetic activity in high fat diet-fed C57BL/6J mouse model of obesity and diabetes assessed as improvement in blood lipid profile by measuring decrease in CE level at 20 mg/kg, ip dosed daily for 2 weeks. In kind it is functional, organism-based.

`CCCCCCCCCCC(C)(C)C(=O)Nc1c(OC)cc(OC)cc1OC`: in series [1], the inhibition entry is “Active”.

Regarding `CC(C)c1cc(C(C)C)c(CC(=O)NS(=O)(=O)Oc2c(C(C)C)cccc2C(C)C)c(C(C)C)c1` [AVASIMIBE], the outcome in [2], in [10] and in series [33] was inactive. Also, the inhibition result in series [3], in series [4], in [5], in series [7], in series [14] and in [16] was “Active” each time. The inhibition entry in series [17], in [18], in series [19], in [23], in series [27] and in [29] was “Active” each time. Also, the inhibition result in series [30] is “Active”. Besides, the outcome in [6], in [8], in series [9], in series [11], in [13] and in series [15] was Active. The result in series [21], in [24], in [25], in series [26], in [28] and in [32] was Active. Further, the outcome in [35], in series [36], in series [37], in [38] and in [39] was Active. Besides, the inhibition result in series [12] was “Dose-dependent effect”. Besides, in series [20], the “inhibition (INH)” value is on record as “<=60%”. Besides, the values for the Activity result in series [22], in series [31] and in [34] were “Non-Toxic”, 50% and 25%, respectively.

(Values after ChEMBL document CHEMBL4742397, “Compositions and methods for regulating body weight and metabolic syndromes” (2018).)
